How the values were obtained:
[1] = test system: HeLa cells; assay: Fluorescence microscopy cellular localisation (DAPI dual staining); type: cell-based; details: 10^−5 M, DAPI nuclear stain
Procedure: Cells were seeded at a density of 30,000 cells/well in chamber slides and allowed to adhere for 24 hr. 2a (10^−5 M) was then added to each chamber and incubated at 37° C. in the dark for either 1 hr or 3 hrs at 37° C.—a one hour incubation was used for FIGS. 4 and 5. The medium was removed and the cells were washed 4 times with drug-free (2a free) medium. The cells were then fixed with 3.7% (v/v) formaldehyde for 15 min at 37° C. The fixative solution was removed and the cells were washed twice with sterile PBS. DAPI (4′,6-diamidino-2-phenylindole) nuclear stain (1/1000) was then incubated with the cells for 10 min at 37° C., following which the cells were washed twice with PBS. Cells were then mounted in Vectashield (Trade Mark) mounting medium.
The cells were viewed using an Axio Zeiss fluorescent microscope. The cells were examined at the different time points using two different filters. The rhodamine filter, which is specific for the wavelength region in which 2a fluoresces, was used to visualise 2a. The DAPI filter was employed to examine the nuclei of the cells.
Cancer cellular uptake of a photosensitiser is a prerequisite for it to act as a PDT agent. Delivery of our proposed PDT agents required formulation of the sensitisers in order to impart water solubility. […]

[2] = test system: HeLa cancer cells; assay: Preliminary light toxicity assay; type: cell-based; details: 24 hours exposure, 15 minutes irradiation >570 nm
Procedure: HeLa cancer calls were exposed to 2a in varying concentrations for 24 hours. 2a laden medium was removed and replaced with fresh medium. Cells were irradiated at constant temperature of 37° C. for 15 minutes with light from a 100 W or 500 W halogen lamp passed through a red glass and water filter barrier, thereby ensuring cells are irradiated with light of more than 570 nm. Irradiated cells were incubated for a further 24 hrs at 37° C. MT cell viability assay was performed.
The dark toxicity effect may be caused by the micellar delivery vehicle itself.

[3] = test system: HeLa cells; assay: Fluorescence microscopy efflux study in HeLa cells; type: cell-based; details: after 3 hrs incubation with 10^−5 M
Procedure: Cells were seeded at a density of 30,000 cells/well in chamber slides and allowed to adhere for 24 hr. A compound of the present invention (10^−5 M) was then added to each chamber and incubated at 37° C. in the dark for 3 hrs. The same procedure was used as for the uptake studies, but for the efflux studies, the cells were treated with fixative solution at specified times after removal of the drug, for example, 5 min, 15 min, 30 min, 1 hr, 2 hr, 3 hr, 6 hr and 24 hr. The slides were then viewed using an Axio Zeiss fluorescent microscope. The cells were examined at the different time points using two different filters. The rhodamine filter was used to visualise the compound of the present invention. […]
LabWorks (Bioimaging Systems) was used to calculate the average fluorescence intensity per cell for each of the different time points used in the uptake and efflux studies for the compounds of the present invention. […] The DAPI filter was used to accurately count the number of cells in each field of view and the rhodamine filter was used to quantify the fluorescence of the compounds of the present invention.
Using the assay method set out above under the heading “Fluorescence Microscopy”, the efflux of 2a was examined from Hela cells and the data are illustrated in FIG. 7. […]

[4] = Spectroscopic absorbance properties; type: physicochemical
From the text: The absorption bands of each photosensitiser are relatively insensitive to solvent changes with solutions in water/Cremophor resulting in a further bathochromic shift of ˜10 nm (Table 1). Excitation of chloroform solutions of the 2a and 4a at 635 nm gave a fluorescence band at 672 and 673 nm respectively (FIG. 2, Table 2). […] The reduction in fluorescence quantum yield in the series would imply more efficient population of the triplet excited state which would benefit singlet oxygen production. The ability of 2 and 4 to produce singlet oxygen would be a prerequisite to them being potential PDT agents.

[5] = Water/Cremophor (100:1), room temperature

F[B-]1(F)n2c(-c3ccccc3)cc(-c3ccccc3)c2N=C2C(c3ccccc3)=CC(c3ccccc3)=[N+]21 [Compound 2a]
cellular localisation [1]: primarily at the endoplasmic reticulum and not in the nucleus | dose response ([2]; 100 W light source, compared with 500 W): poorer response | EC50 ([2]; 500 W light source): 1 µM | time to complete efflux [3]: 1000 min | fwhm (full width at half maximum) ([4]; CHCl3, room temperature): 49 nm | ε (molar extinction coefficient) ([4]; CHCl3, room temperature): 79,000 M^−1cm^−1 | λmax (absorbance) ([4]; CHCl3, room temperature): 650 nm | fwhm (full width at half maximum) [4, 5]: 53 nm | λmax (absorbance) [4, 5]: 658 nm

Reference: patent publication US7220732B2, “Compounds useful as photodynamic therapeutic agents” (priority 2002, dated 2007)
